From patent US20220160751A1, “METHODS OF TREATMENT OF DISEASES AND DISORDERS ASSOCIATED WITH INCREASED TET LEVEL, INCREASED H19 LEVEL, INCREASED LEVEL OF TGF SIGNALING, OR ANY COMBINATION THEREOF” (YALE UNIVERSITY, priority 2019, published 2022)

Columns and labels:
HUVECs = test: RT-qPCR and Western blot of gene expression in HUVECs; format: cell-based, human; conditions: for H19 expression (RT-qPCR): overnight treatment vs vehicle
Procedure: HUVECs (Lonza, CC-2517) were maintained in a growth medium composed of endothelial basal medium (EBM-2, CC-3156) supplemented with EGM-2 MV BulletKit (CC-4147, Lonza). Cells were used between passages P2-P5. For cytokine treatment, cells were incubated overnight with indicated concentrations of TNF-α, TNF-α plus IL-1β, or Hcy in endothelial basal medium. Cells were transfected in a 24-well plate scale. To prepare siRNA transfection solution for each well, 10 pmol of siCon, siH19, or siTET1 were mixed with 25 μl of OPTI-MEM by gentle pipetting. In parallel, 1 μl of Lipofectamine 3000 was mixed with 25 μl of OPTI-MEM. Following 5 min of incubation at RT, the two were mixed by gentle pipetting and incubated for 10 min at RT to allow siRNA/lipid complexes to form. At the end of incubation, the 50 μl of transfection solution was used to resuspend cell pellet (3×10^4 cells/well). After incubation at room temperature (RT) for 10 min, growth medium was added at a ratio of 1:9 (1 volume of transfection solution/9 volumes of growth medium) and the cell suspension was transferred to a culture plate. For cytokine treatment combined with H19 knockdown, cells were transfected with siCon or siH19 for 24 h, followed by addition of TNF-α at a final concentration of 10 ng/ml for an additional 24 h before RNA extraction. For iLet 7 rescue experiments, 10 pmol of siCon+iCon, iCon+siH19, or siH19+iLet7 were used for each well of 3×10^4 cells. Forty-eight hours after the transfection, RNA and protein were extracted for analysis.
To prepare DNA/lipid complexes for pH19/pTET1 overexpression (FIG. 23) or pTET1 overexpression rescue (FIG. 22) experiments, empty vector (0.5 μg), pH19 ([…]), or pTET1 (0.75 μg) were mixed with 1 μl of P3000 in 25 μl of OPTI-MEM by gentle pipetting. In parallel, 0.75 μl of Lipofectamin 3000 was mixed with 25 μl of OPTI-MEM. The contents in the two tubes were mixed by gentle pipetting and incubated at RT for 5 min. The resulting DNA/lipid complexes (50 μl) were added to one well of cells (8×10^4) which had been seeded in a 24-well plate in growth medium the night before. Following incubation at RT for 10 min, 300 μl of OPTI-MEM was added and cells were incubated in a tissue culture incubator for 4-6 h. […]
HUVECs in 24-well plates were dissociated with 0.25% trypsin. […] Bands on Western blot gels were quantified using ImageJ. […]
Total RNAs were extracted using PureLink RNA Mini Kit (Ambion, catalog number 12183018A). cDNA was synthesized using PrimeScript RT Reagent Kit (TAKARA, RR037A) in a 20 μl reaction containing 0.5-1 μg of total RNA. Real-time quantitative PCR was performed in a 15 μl reaction containing 0.5-1 μl of cDNA using iQSYBRGreen (Bio-Rad) in a Bio-Rad iCycler. […]

[1] = system: UtLM and ht-UtLM leiomyoma cells; test: RT-qPCR and Western blot of gene expression in leiomyoma cells; format: cell-based, human; conditions: ht-UtLM cells, 24 h, 10^−8M
Source text: Antibodies for TET3 (GeneTex, GTX121453; used at a dilution of 1/500), TGFBR2 (Abcam, ab184948; used at a dilution of 1/1000), TSP1 (Abcam, ab85762; used at a dilution of 1/500), MED12 (Novus Biological, NB100-2357; used at a dilution of 1/500), HMGA2 (Proteintech, 20795-1-AP; used at a dilution of 1/500), GRAF1 (Cell Signaling, 8802; used at a dilution of 1/500), SPARC (Cell Signaling, 8725; used at a dilution of 1/500), COL3A1 (LS-Bio, LS-C159386; used at a dilution of 1/1000), COL4A1 (LS-Bio, LS-C100552; used at a dilution of 1/500), COL5A2 (Origene, TA809611; used at a dilution of 1/500) and GAPDH (Abcam, ab128915; used at a dilution of 1/10000) were purchased. Human H19 siRNA (siH19) and control siRNA (siCon) were previously described (Ghazal S et al., 2015, EMBO Mol Med 7:996-1003). siTET3 (Ambion, 4392420/s47239), estradiol ([…], Sigma), and progesterone ([…], Sigma) were purchased. Estradiol and progesterone were dissolved in DMSO and used at a final concentration of 10^-8M. ht-UtLM cells tested negative for mycoplasma contamination were maintained in MEM (Sigma, #M3024) supplemented with 20% fetal bovine serum, 1×MEM Vitamin Solution (Invitrogen #11120-052), 1×MEM Amino Acids Solution (Invitrogen, #11130-051), and 1×MEM Non-Essential Amino Acids (Invitrogen #11140-050). Primary UtLM-1 and UtLM-2 cells were maintained in DMEM (Gibco, #10567014) supplemented with 20% fetal bovine serum, and 1% penicillin/streptomycin, 1% amphotericin B. All cells were transfected in a 24-well plate scale. To prepare siRNA transfection solution for each well, 10 pmol (5 pmol for primary cells) of siCon, siH19, or siTET3 were mixed with 25 μl of OPTI-MEM by gentle pipetting. In parallel, 1 μl of Lipofectamine 3000 was mixed with 25 μl of OPTI-MEM. Following 5 min of incubation at room temperature, the two were mixed by gentle inverting and incubated for 10 min at room temperature to allow siRNA/lipid complexes to form. At the end of incubation, the 50 μl of transfection solution was used to re-suspend the cell pellet (3×10^4 cells). After incubation at room temperature for 10 min, growth medium was added at a ratio of 1:9 (1 volume of transfection solution/9 volumes of growth medium), and the cell suspension was transferred to a new culture dish. After overnight incubation in a tissue culture incubator, the medium was replaced with fresh growth medium. For iLet 7 rescue experiments, 10 pmol of siCon/siH19 and 10 pmol of iCon/iLet7 were used for each well of 3×10^4 cells. RNA, genomic DNA, and protein were extracted and analyzed at the indicated time points following transfection.

## N[C@@H](CCS)C(=O)O [Hcy, L-Homocysteine]
HUVECs
  H19 expression (RT-qPCR): dose-dependently upregulates H19

## CC(=O)[C@H]1CC[C@H]2[C@@H]3CCC4=CC(=O)CC[C@]4(C)[C@H]3CC[C@]12C [progesterone]
[1]
  H19 expression: did not affect H19 expression

## IL-1β: Recombinant human IL-1β (R&D Systems, 201-LB), combined with TNF-α
HUVECs
  H19 expression (RT-qPCR): additive effect

## TNF-α
HUVECs; TNF-α 10 ng/ml 24 h vs vehicle
  expression of TET1, TGFBR2 and TSP1 (RT-qPCR): upregulated expression of TET1, TGFBR2 and TSP1
HUVECs
  H19 expression (RT-qPCR): stimulates H19 expression in a dose-dependent manner
